Target: T1, PDE 7 (phosphodiesterase VII) (Homo sapiens, UniProt Q13946)
T1 construct: endogenous in cells; host or cells: MOLT-4 (ATCC CRL-1582), soluble fraction, HiTrap Q column, fraction eluting at about 350 mM NaCl
Assay: PDE 7 inhibiting effect (Biological Test 1; 3H-cAMP hydrolysis by PDE 7 active fraction from MOLT-4 cells)
Assay type: biochemical
Settings: PDE 7 fraction from MOLT-4 cells; 0.064 μM cAMP, 10 μM rolipram present, 2 hours at 25° C.; read-out: PDE 7 inhibiting activities, IC50
Experimental: The PDE 7 (phosphodiesterase VII) inhibiting effect of the compounds of the present invention was performed by the following method, which was modified assay method described in Biochemical. Pharmacol. 48(6), 1219-1223 (1994).
(1) The active fraction of PDE 7 (phosphodiesterase VII) was obtained. That is, MOLT-4 (obtainable from ATCC as ATCC No. CRL-1582), which was cell line of human acute lymphoblastic lymphoma T cells, was incubated in RPMI1640 culture medium containing 10% fetal bovine serum to obtain 5×10^8 MOLT-4 cells. The cells were collected by centrifugation and suspended with 10 mL of buffer solution A [25 mM of tris-HCl, 5 mM of 2-mercaptoethnol, 2 mM of benzamidine, 2 mM of EDTA, 0.1 mM of 4-(2-aminoethyl) benzensulfonyl hydrochloride; pH 7.5], then homogenized by Polytron® homogenizer. The homogenate were centrifuged under 25,000×G for 10 minutes at 4° C. The supernatant was separated and thus obtained supernatant was further centrifuged under 100,000×G for 60 minutes at 4° C., and then filtrated with 0.2 μm filter to obtain the soluble fraction. (2) The obtained soluble fraction was filled in equilibrium HiTrap Q column (5 mL×2) with buffer solution A, and phosphodiesterase fractions were eluted by 300 mL of buffer solution A with linear gradient from 0 to 0.8 M NaCl concentration. 5 ml each of 60 eluents were collected, and each eluents were examined for cyclic AMP metabolic activities of phosphodiesterase. The fraction eluting with about 350 mM NaCl concentration parts, where metabolic activities were not inactivated by 10 μM of rolipram (selective inhibitor for phosphodiesterase IV) and 10 μM of milrinone (selective inhibitor for phosphodiesterase III), were collected as storage solution for using to test PDE 7 inhibiting effect. […] Further, SEPHADEX®-QAE (cross-linked dextran gel) was added to the obtained supernatant and the mixture was leaved at rest for 5 minutes, then, the radioactivity of the solution was measured. […]

T1 sequence (Q13946 whole entry): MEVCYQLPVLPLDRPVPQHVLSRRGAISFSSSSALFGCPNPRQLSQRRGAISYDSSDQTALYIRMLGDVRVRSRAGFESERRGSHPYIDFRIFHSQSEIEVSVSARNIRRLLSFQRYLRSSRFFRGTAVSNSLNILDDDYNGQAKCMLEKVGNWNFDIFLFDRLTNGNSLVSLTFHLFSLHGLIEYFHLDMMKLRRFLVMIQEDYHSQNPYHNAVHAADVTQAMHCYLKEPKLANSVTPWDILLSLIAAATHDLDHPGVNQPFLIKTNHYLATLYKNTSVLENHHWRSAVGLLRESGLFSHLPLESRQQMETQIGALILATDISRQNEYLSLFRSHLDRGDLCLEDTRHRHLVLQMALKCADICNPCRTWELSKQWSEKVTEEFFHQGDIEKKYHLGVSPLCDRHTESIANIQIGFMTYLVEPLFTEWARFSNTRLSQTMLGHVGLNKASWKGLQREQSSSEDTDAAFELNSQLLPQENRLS

IC50 [nM]	Compound
340	COc1ccccc1-c1nc2c(C)nc(C3CCCCC3)n2c(=O)[nH]1 [Compound 8, 6-Cyclohexyl-2-(2-methoxyphenyl)-8-methylimidazo[1,5-a][1,3,5]-triazin-4(3H)-one]
55	COc1cc(N2CCN(C)CC2)ccc1-c1nc2c(C)nc(C3CCCCC3)n2c(=O)[nH]1 [Compound 11, 6-Cyclohexyl-2-[2-methoxy-4-(4-methyl-1-piperadinyl)phenyl]-8-methylimidazo[1,5-a][1,3,5]triazin-4(3H)-one]
490	COc1ccccc1-c1nn2c(C)nc(C3CCCCC3)c2c(=O)[nH]1 [Compound 12, 5-Cyclohexyl-2-(2-methoxyphenyl)-7-methylimidazo-[5,1-f][1,2,4]triazin-4(3H)-one]

— patent US7713972B2, “Imidazotriazinone derivatives as PDE 7 (phosphodiesterase 7) inhibitors” (Asubio Pharma Co., Ltd., priority 2003, dated 2010)
